Reference: PubChem BioAssay (NCI)
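Interpolation was linear, between the two tested concentrations surrounding the appropriate level; five concentrations were tested over 48 hours in 96-well plates. GI50: concentration for 50% inhibition of growth. TGI is the concentration that stops growth completely.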

How the values were obtained:
Experiment in all cases: inhibition of tumour cell growth, NCI panel, 48 h
[1] = test system: SF-268 CNS
[2] = test system: 786-0 renal
[3] = test system: LOX IMVI melanoma
[4] = test system: LXFL 529 NSCLC
[5] = test system: UO-31 renal
[6] = test system: SK-MEL-2 melanoma
[7] = test system: DLD-1 colon
[8] = test system: SF-539 CNS
[9] = test system: UACC-257 melanoma
[10] = test system: NCI/ADR-RES ovarian

| SMILES | TGI [1] [µM] | TGI [2] [µM] | TGI [3] [µM] | TGI [4] [µM] | TGI [5] [µM] | TGI [6] [µM] | TGI [7] [µM] | TGI [8] [µM] | TGI [9] [µM] | TGI [10] [µM] | GI50 [1] [µM] | GI50 [2] [µM] | GI50 [3] [µM] | GI50 [4] [µM] | GI50 [5] [µM] | GI50 [6] [µM] | GI50 [7] [µM] | GI50 [8] [µM] | GI50 [9] [µM] | GI50 [10] [µM] |
| --- | --- | --- | --- | --- | --- | --- | --- | --- | --- | --- | --- | --- | --- | --- | --- | --- | --- | --- | --- | --- |
| COc1ccc2c(-c3cc4ccccc4o3)cc(=O)oc2c1 | > 94 | 78.6 | > 100 | > 100 | 65.6 | > 100 | > 100 | 49.6 | > 100 | > 100 |  |  |  |  |  |  |  |  |  |  |
| CC(=O)[CH-]C(C)=O.CC(=O)[CH-]C(C)=O.N=CC=N.[Sn+2] | 10.5 | 3.23 | 2.97 | 2.6 | 21.1 | 11.2 | 3.26 | 11.8 | 15.9 | 12.6 | 3.28 | 1.76 | 1.57 | 1.32 | 9 | 3.46 | 1.71 | 3.23 | 4.64 | 3.15 |
| CC(C)(C)c1nc2c(o1)C(=Nc1ccc(F)cc1)c1ccccc1C2=O | > 62.9 | 52.5 | 13 | > 100 | 28.1 | 8.03 | > 100 | 14.2 | 8.41 | > 56.7 |  |  |  |  |  |  |  |  |  |  |
